Tests used:
[1] = target: Bromodomain-containing protein 4 (Homo sapiens, UniProt O60885, Y390A)
[2] = target: T1, Bromodomain-containing protein 4 (Homo sapiens, UniProt O60885); experiment: Binding affinity to BRD4 BD1 (unknown origin) by BROMOscan panel based assay
[3] = target: T2, Bromodomain-containing protein 9 (Homo sapiens, UniProt Q9H8M2); experiment: Binding affinity to BRD9 in human HUT78 cells incubated for 45 mins by mass spectrometry based bromosphere chemoproteomic assay; type: cell-based
T2 sequence (Q9H8M2 whole entry): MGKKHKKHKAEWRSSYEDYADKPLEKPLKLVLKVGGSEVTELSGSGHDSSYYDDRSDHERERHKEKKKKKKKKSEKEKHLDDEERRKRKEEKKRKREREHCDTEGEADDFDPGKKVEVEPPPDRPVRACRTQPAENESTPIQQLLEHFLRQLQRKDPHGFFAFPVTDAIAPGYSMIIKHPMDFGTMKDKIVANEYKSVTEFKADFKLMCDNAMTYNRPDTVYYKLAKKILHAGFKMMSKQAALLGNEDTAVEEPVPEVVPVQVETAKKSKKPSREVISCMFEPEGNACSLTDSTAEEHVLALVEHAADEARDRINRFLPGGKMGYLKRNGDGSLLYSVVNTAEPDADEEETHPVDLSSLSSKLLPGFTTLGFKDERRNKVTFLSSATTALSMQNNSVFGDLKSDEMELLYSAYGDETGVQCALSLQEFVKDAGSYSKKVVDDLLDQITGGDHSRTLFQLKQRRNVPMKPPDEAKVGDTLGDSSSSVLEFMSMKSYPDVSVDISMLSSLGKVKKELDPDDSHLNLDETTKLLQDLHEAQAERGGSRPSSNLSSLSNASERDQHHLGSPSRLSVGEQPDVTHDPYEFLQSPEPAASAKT

physchem = settings: phosphate buffered saline, pH 7.4, solubility
Description: Solubility of the compound in phosphate buffered saline at pH 7.4 after 1 hr by CLND method

[4] = target: Bromodomain-containing protein 1 (Homo sapiens, UniProt O95696); experiment: Binding affinity to BRPF2 (unknown origin) by BROMOscan panel based assay
[5] = target: Nucleosome-remodeling factor subunit BPTF (Homo sapiens, UniProt Q12830); experiment: Binding affinity to BPTF in human HUT78 cells incubated for 45 mins by mass spectrometry based bromosphere chemoproteomic assay; type: cell-based
[6] = target: T3, Bromodomain-containing protein 3 (Homo sapiens, UniProt Q15059); experiment: Binding affinity to BRD3 containing BD2 bromodomains (unknown origin) by TR-FRET assay
[7] = Distribution coefficient, log D of the compound at pH 7.4 by chromatographic method; type: physicochemical; settings: octanol/water
[8] = target: T3, Bromodomain-containing protein 3; experiment: Binding affinity to BRD3 containing BD1 bromodomains (unknown origin) by TR-FRET assay
[9] = Permeability across phosphatidyl choline membrane at pH 7.4 after 3 hrs by HPLC with UV detection method; type: ADME; settings: not told, read-out: permeability
Peregrin = target: T4, Peregrin (Homo sapiens, UniProt P55201); experiment: Binding affinity to BRPF1 (unknown origin) by BROMOscan panel based assay
T4 sequence (P55201 whole entry): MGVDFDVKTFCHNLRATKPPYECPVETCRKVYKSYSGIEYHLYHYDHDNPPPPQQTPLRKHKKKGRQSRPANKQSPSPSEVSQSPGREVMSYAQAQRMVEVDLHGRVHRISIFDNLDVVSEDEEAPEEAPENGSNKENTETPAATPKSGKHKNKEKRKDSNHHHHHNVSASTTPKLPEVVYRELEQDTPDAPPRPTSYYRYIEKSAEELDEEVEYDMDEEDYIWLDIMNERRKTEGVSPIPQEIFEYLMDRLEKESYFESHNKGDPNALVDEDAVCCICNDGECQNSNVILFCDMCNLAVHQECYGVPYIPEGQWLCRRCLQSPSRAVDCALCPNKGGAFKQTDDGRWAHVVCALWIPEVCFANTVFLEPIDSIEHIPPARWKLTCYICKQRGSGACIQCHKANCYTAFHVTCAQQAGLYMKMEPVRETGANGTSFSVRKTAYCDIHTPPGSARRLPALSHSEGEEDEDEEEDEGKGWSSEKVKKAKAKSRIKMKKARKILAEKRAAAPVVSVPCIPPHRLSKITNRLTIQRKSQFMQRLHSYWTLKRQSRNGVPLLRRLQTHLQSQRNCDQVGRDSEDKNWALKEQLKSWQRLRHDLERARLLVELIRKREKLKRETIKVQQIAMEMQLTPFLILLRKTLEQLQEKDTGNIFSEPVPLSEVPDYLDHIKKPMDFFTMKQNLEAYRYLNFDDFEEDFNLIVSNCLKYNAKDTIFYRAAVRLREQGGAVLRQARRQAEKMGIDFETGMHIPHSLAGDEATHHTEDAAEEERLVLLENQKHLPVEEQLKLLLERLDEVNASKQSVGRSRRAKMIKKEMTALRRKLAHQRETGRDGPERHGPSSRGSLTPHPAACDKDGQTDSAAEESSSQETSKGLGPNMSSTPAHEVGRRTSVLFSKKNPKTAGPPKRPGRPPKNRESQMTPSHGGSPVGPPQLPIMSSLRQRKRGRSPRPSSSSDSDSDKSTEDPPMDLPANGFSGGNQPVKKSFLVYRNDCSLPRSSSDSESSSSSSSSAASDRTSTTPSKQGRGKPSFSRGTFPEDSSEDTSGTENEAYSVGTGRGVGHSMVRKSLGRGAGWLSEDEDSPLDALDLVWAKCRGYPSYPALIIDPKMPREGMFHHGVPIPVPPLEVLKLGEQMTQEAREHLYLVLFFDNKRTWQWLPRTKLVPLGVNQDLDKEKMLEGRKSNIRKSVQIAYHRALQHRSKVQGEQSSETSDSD

[10] = target: Histone acetyltransferase KAT2A (Homo sapiens, UniProt Q92830); experiment: Binding affinity to KAT2A in human HUT78 cells incubated for 45 mins by mass spectrometry based bromosphere chemoproteomic assay; type: cell-based
[11] = target: T1, Bromodomain-containing protein 4; experiment: Binding affinity to BRD4 in human HUT78 cells incubated for 45 mins by mass spectrometry based bromosphere chemoproteomic assay; type: cell-based
[12] = target: Bromodomain and PHD finger-containing protein 3 (Homo sapiens, UniProt Q9ULD4); experiment: Binding affinity to BRPF3 (unknown origin) by BROMOscan panel based assay
[13] = target: Bromodomain adjacent to zinc finger domain protein 2A (Homo sapiens, UniProt Q9UIF9); experiment: Binding affinity to BAZ2A in human HUT78 cells incubated for 45 mins by mass spectrometry based bromosphere chemoproteomic assay; type: cell-based

T3 sequence (Q15059 whole entry): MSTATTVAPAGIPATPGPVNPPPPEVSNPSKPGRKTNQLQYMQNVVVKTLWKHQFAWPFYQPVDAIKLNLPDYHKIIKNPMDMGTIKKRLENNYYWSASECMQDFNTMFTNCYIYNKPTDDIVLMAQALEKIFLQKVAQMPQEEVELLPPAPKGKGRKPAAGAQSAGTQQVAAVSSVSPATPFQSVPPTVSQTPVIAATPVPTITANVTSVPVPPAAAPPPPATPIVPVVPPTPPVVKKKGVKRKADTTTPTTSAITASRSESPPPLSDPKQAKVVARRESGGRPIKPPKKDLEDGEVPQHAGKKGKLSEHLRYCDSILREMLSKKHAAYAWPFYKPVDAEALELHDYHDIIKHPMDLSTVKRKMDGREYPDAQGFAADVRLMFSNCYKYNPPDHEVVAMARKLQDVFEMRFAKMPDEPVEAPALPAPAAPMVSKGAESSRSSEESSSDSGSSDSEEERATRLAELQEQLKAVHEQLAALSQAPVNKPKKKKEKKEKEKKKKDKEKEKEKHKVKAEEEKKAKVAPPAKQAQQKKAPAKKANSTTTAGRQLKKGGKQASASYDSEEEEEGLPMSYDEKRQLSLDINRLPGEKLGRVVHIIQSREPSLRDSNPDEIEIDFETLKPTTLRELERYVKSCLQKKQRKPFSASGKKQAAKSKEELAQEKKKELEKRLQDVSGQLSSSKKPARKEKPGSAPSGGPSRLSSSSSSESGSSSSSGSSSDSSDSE
Bromodomain and PHD finger-containing protein 3, sequence (Q9ULD4 whole entry, the tested form may be a part): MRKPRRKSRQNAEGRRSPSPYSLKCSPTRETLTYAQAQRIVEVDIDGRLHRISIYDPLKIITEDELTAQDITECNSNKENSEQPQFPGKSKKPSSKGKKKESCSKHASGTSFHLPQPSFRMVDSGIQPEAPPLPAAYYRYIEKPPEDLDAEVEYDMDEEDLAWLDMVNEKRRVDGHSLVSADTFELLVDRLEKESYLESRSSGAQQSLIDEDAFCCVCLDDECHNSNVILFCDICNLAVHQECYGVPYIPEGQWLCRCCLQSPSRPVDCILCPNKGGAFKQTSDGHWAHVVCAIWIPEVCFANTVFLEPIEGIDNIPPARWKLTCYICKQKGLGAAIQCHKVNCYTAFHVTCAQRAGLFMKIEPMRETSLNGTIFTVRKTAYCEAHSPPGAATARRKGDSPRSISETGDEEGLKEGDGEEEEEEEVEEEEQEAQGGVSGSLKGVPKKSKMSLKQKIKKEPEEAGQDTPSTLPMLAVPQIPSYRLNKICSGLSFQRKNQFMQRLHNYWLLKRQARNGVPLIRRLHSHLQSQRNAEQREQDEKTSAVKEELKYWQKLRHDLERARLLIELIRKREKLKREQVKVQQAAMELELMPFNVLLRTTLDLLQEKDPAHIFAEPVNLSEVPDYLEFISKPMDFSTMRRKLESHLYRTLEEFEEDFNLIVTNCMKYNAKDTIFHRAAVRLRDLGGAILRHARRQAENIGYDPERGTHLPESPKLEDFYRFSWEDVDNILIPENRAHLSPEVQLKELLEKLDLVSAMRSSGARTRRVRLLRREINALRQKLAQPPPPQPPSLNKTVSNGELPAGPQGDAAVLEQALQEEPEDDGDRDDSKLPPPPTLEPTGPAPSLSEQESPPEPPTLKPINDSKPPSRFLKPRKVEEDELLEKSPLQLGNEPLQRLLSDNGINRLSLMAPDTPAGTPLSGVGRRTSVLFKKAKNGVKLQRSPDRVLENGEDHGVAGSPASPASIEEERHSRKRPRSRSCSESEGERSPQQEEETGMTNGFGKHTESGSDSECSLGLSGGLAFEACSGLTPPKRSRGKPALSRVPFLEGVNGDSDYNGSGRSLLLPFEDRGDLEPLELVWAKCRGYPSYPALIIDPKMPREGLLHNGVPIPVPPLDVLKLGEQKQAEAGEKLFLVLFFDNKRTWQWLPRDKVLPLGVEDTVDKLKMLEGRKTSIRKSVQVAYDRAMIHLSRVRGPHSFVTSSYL
Histone acetyltransferase KAT2A, sequence (Q92830 whole entry): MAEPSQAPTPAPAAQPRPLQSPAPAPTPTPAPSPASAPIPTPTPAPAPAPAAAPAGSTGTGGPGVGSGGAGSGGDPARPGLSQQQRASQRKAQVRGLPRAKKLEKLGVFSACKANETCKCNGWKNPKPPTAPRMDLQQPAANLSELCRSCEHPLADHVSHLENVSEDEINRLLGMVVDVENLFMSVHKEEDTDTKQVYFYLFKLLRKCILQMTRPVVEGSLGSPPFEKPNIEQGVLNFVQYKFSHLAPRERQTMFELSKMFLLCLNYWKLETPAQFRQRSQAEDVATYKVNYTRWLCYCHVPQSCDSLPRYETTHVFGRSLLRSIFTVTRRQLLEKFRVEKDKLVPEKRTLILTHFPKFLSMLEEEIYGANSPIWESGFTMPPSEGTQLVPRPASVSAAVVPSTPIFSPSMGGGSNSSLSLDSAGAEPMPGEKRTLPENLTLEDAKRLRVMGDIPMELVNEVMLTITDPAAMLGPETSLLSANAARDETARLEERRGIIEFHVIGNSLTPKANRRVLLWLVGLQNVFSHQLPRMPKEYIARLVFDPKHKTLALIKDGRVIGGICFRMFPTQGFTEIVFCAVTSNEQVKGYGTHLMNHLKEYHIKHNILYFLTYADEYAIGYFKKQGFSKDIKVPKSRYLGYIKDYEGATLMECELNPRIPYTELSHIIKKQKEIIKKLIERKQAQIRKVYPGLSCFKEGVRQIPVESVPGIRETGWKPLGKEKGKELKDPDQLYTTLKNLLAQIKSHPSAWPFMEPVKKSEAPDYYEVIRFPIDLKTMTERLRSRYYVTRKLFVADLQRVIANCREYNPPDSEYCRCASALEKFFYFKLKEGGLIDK
Bromodomain-containing protein 1, sequence (O95696 whole entry): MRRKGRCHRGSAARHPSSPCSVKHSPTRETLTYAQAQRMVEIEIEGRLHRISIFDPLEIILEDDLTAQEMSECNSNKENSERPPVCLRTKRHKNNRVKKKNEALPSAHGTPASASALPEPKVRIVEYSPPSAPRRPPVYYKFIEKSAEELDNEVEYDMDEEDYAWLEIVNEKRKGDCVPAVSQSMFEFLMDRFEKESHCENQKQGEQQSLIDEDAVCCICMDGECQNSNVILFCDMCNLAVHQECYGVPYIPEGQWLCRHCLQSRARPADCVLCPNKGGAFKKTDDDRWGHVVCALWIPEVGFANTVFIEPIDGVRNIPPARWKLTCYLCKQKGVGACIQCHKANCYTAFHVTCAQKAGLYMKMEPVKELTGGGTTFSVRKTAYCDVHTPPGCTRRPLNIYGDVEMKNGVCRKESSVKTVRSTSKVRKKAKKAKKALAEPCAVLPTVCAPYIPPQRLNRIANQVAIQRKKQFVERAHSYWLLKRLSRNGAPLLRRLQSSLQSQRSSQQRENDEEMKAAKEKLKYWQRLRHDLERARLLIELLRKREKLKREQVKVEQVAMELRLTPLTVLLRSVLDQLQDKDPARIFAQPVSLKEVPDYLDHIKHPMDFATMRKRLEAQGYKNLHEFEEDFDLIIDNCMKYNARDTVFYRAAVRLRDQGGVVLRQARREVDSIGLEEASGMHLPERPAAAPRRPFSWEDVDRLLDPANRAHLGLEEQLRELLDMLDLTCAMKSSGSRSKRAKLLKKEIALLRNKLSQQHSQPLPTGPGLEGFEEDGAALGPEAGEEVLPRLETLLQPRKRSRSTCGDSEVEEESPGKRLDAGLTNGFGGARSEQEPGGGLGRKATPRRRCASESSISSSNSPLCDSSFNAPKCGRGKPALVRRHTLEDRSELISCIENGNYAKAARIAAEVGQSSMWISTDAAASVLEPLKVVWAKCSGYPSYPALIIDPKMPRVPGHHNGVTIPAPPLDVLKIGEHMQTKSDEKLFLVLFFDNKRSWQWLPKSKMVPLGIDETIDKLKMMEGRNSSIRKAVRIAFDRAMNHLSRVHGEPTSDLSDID

IC50 [1]: 79.4 µM
Ki [2]: 7.94 µM
Kd [3]: 15.8 µM
solubility kinetic at 1 h (physchem): ≥ 341 µM
Ki [4]: 0.398 µM
Kd [5]: > 100 µM
IC50 [6]: > 50.1 µM
chromatographic logD [7]: 2.3
IC50 [8]: > 50.1 µM
Papp at 3 h [9]: < 10 nm/s
Ki (Peregrin): 5.01 µM
Kd [10]: > 100 µM
Kd [11]: 20 µM
Ki [12]: 0.794 µM
Kd [13]: > 100 µM
Compound: Cc1cncc(-c2cnc(N[C@@H]3CCN(C)C[C@H]3OCC3CCS(=O)(=O)CC3)c3[nH]c(=O)c(C)cc23)c1

Reference: ChEMBL document CHEMBL3588744, “Structure-Based Optimization of Naphthyridones into Potent ATAD2 Bromodomain Inhibitors” (J Med Chem, 2015)
